ChEMBL document CHEMBL2440003, “Novel BACE1 inhibitors with a non-acidic heterocycle at the P1' position” (Bioorg Med Chem, 2013)
pIC50: −log10 of the molar value.

Legend:
Beta-secretase 1 [1] = target: T1, Beta-secretase 1 (Homo sapiens, UniProt P56817); experiment: Inhibition of recombinant human BACE1 at 0.2 uM by FRET analysis
Beta-secretase 1 [2] = target: T1, Beta-secretase 1; experiment: Inhibition of recombinant human BACE1 by FRET analysis
Beta-secretase 1 [3] = target: T1, Beta-secretase 1; experiment: Inhibition of recombinant human BACE1 at 2 uM by FRET analysis
Renin = target: T2, Renin (Homo sapiens, UniProt P00797); experiment: Inhibition of human renin
T2 sequence (P00797 whole entry): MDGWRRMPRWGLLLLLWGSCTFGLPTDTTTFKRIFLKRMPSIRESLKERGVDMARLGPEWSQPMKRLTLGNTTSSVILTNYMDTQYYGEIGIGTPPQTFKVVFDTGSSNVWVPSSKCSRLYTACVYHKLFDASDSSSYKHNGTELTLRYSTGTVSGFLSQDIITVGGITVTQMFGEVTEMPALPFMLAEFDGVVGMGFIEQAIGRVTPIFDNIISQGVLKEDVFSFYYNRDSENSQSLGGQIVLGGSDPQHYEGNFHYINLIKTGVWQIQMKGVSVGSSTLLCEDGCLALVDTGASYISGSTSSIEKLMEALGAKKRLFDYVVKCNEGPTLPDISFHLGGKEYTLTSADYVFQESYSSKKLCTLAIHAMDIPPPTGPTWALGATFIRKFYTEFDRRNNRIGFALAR

T1 sequence (P56817 whole entry): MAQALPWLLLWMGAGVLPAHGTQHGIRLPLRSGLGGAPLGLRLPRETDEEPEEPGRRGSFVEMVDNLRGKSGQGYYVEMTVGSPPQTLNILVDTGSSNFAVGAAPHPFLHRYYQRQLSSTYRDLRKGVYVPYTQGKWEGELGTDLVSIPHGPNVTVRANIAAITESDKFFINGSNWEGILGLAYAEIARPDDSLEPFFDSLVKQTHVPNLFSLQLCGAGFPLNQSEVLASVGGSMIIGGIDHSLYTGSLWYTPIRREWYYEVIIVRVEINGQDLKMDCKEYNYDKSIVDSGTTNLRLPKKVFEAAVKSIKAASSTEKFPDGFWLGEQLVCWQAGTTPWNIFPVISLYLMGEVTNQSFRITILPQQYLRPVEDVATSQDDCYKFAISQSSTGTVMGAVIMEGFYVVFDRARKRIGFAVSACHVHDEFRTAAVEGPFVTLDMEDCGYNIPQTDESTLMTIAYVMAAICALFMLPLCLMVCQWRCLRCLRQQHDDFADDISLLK

Row | inhibition (Beta-secretase 1 [1]) | pIC50 (Beta-secretase 1 [2]) | inhibition (Beta-secretase 1 [3]) | pIC50 (Renin) | Compound
1 | 79% | 7.59 | 97% | – | C[C@@H](NC(=O)c1cc(C(=O)N[C@@H](Cc2ccccc2)[C@@H](O)C(=O)Nc2nnc(Br)s2)cc(N(C)S(C)(=O)=O)c1)c1ccccc1
2 | 51% | – | 88% | – | CCc1nnc(NC(=O)[C@H](O)[C@H](Cc2ccccc2)NC(=O)c2cc(C(=O)N[C@H](C)c3ccccc3)cc(N(C)S(C)(=O)=O)c2)s1
3 | – | – | 5% | – | C[C@@H](NC(=O)c1cc(C(=O)N[C@@H](Cc2ccccc2)[C@H](O)C(=O)Nc2nc3ccccc3s2)cc(N(C)S(C)(=O)=O)c1)c1ccccc1
4 | – | – | – | < 4.30 | C[C@@H](NC(=O)c1cc(C(=O)N[C@@H](Cc2ccccc2)[C@H](O)CNC2CC2)cc(N(C)S(C)(=O)=O)c1)c1ccccc1
5 | 39% | – | 83% | – | C[C@@H](NC(=O)c1cc(C(=O)N[C@@H](Cc2ccccc2)[C@@H](O)C(=O)Nc2nncs2)cc(N(C)S(C)(=O)=O)c1)c1ccccc1
6 | – | – | 78% | – | C[C@@H](NC(=O)c1cc(C(=O)N[C@@H](Cc2ccccc2)[C@@H](O)C(=O)Nc2ncc(Br)s2)cc(N(C)S(C)(=O)=O)c1)c1ccccc1
7 | 56% | – | 87% | – | COC(=O)c1cnc(NC(=O)[C@H](O)[C@H](Cc2ccccc2)NC(=O)c2cc(C(=O)N[C@H](C)c3ccccc3)cc(N(C)S(C)(=O)=O)c2)s1
8 | – | – | 30% | – | COC(=O)c1csc(NC(=O)[C@H](O)[C@H](Cc2ccccc2)NC(=O)c2cc(C(=O)N[C@H](C)c3ccccc3)cc(N(C)S(C)(=O)=O)c2)n1
9 | 73% | – | 96% | – | C[C@@H](NC(=O)c1cc(C(=O)N[C@@H](Cc2ccccc2)[C@@H](O)C(=O)Nc2ncc([N+](=O)[O-])s2)cc(N(C)S(C)(=O)=O)c1)c1ccccc1
10 | – | – | 48% | – | C[C@@H](NC(=O)c1cc(C(=O)N[C@@H](Cc2ccccc2)[C@@H](O)C(=O)Nc2nccs2)cc(N(C)S(C)(=O)=O)c1)c1ccccc1
11 | 45% | – | 86% | – | CCSc1nnc(NC(=O)[C@H](O)[C@H](Cc2ccccc2)NC(=O)c2cc(C(=O)N[C@H](C)c3ccccc3)cc(N(C)S(C)(=O)=O)c2)s1
12 | – | – | 38% | – | C[C@@H](NC(=O)c1cc(C(=O)N[C@@H](Cc2ccccc2)[C@H](O)C(=O)Nc2nncs2)cc(N(C)S(C)(=O)=O)c1)c1ccccc1
13 | 43% | – | 84% | – | CSc1nnc(NC(=O)[C@H](O)[C@H](Cc2ccccc2)NC(=O)c2cc(C(=O)N[C@H](C)c3ccccc3)cc(N(C)S(C)(=O)=O)c2)s1
14 | – | – | 58% | – | Cc1nnc(NC(=O)[C@@H](O)[C@H](Cc2ccccc2)NC(=O)c2cc(C(=O)N[C@H](C)c3ccccc3)cc(N(C)S(C)(=O)=O)c2)s1
15 | 50% | – | 90% | – | Cc1nnc(NC(=O)[C@H](O)[C@H](Cc2ccccc2)NC(=O)c2cc(C(=O)N[C@H](C)c3ccccc3)cc(N(C)S(C)(=O)=O)c2)s1
16 | – | – | 49% | – | C[C@@H](NC(=O)c1cc(C(=O)N[C@@H](Cc2ccccc2)[C@@H](O)C(=O)Nc2nnc(-c3ccncc3)s2)cc(N(C)S(C)(=O)=O)c1)c1ccccc1
17 | – | – | 29% | – | C[C@@H](NC(=O)c1cc(C(=O)N[C@@H](Cc2ccccc2)[C@@H](O)C(=O)Nc2nc3ccccc3s2)cc(N(C)S(C)(=O)=O)c1)c1ccccc1
18 | – | – | 19% | – | C[C@@H](NC(=O)c1cc(C(=O)N[C@@H](Cc2ccccc2)[C@H](O)C(=O)Nc2nccs2)cc(N(C)S(C)(=O)=O)c1)c1ccccc1
19 | 75% | – | 96% | – | C[C@@H](NC(=O)c1cc(C(=O)N[C@@H](Cc2ccccc2)[C@@H](O)C(=O)Nc2nnc(C(F)(F)F)s2)cc(N(C)S(C)(=O)=O)c1)c1ccccc1
20 | – | – | 48% | – | C[C@@H](NC(=O)c1cc(C(=O)N[C@@H](Cc2ccccc2)[C@@H](O)C(=O)Nc2nnc(C(C)(C)C)s2)cc(N(C)S(C)(=O)=O)c1)c1ccccc1
21 | – | – | 43% | – | C[C@@H](NC(=O)c1cc(C(=O)N[C@@H](Cc2ccccc2)[C@@H](O)C(=O)Nc2nnc(-c3ccccc3)s2)cc(N(C)S(C)(=O)=O)c1)c1ccccc1
